ChEMBL document CHEMBL1201862, “PubChem BioAssay data set” (2004)
Activity calls are given as the source filed them.

Experiments:
[1] = C. albicans growth with fluconazole, confirmation, fluorescence, retest (AID 2467); assay type: functional, cell-based
[2] = target: T1, Zinc finger protein mex-5 (Caenorhabditis elegans, UniProt Q9XUB2); assay: MEX-5/TCR-2 RNA interaction inhibitors, dose response, biochemical, C. elegans, fluorescence polarization (AID 1960)
T1 sequence (Q9XUB2 whole entry): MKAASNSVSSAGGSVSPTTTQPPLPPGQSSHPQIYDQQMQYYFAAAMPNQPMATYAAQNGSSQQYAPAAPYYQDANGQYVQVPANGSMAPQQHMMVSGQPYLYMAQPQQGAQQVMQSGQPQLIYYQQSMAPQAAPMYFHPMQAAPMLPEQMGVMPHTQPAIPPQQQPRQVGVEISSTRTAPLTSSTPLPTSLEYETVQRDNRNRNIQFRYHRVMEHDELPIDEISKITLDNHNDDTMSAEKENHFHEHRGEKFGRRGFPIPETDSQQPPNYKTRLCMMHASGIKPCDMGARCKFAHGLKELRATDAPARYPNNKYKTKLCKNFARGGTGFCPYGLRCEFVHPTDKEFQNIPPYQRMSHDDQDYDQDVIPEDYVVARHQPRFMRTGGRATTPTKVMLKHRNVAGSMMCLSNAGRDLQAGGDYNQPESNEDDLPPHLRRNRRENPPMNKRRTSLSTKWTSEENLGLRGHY

[3] = target: T2, RNA-binding protein pos-1 (Caenorhabditis elegans, UniProt G5EF15); assay: inhibitors of POS-1/mex-3 RNA binding, dose response, biochemical, fluorescence polarization (AID 1964);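 also: purified POS-1 fused to maltose binding protein made in E. coli; potency of compounds blocking POS-1 binding to fluorescent RNA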
T2 sequence (G5EF15 whole entry): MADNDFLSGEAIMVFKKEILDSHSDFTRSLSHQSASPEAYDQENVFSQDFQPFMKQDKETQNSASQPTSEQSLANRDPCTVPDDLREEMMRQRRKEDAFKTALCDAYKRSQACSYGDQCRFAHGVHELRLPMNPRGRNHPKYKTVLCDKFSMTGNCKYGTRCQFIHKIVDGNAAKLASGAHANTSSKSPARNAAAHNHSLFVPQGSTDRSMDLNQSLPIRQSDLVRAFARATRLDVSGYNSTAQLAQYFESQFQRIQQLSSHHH

[4] = target: T3, Polyadenylate-binding protein 1 (Homo sapiens, UniProt P11940); assay: PABP1 MLLE–PAM2 interaction inhibitors, dose response, miRNA deadenylation inhibitor project, biochemical, fluorescence polarization, Cy5-PAM2 peptide, secondary (AID 602260); assay type: functional; details: read-out: IC50_Mean
T3 sequence (P11940 whole entry): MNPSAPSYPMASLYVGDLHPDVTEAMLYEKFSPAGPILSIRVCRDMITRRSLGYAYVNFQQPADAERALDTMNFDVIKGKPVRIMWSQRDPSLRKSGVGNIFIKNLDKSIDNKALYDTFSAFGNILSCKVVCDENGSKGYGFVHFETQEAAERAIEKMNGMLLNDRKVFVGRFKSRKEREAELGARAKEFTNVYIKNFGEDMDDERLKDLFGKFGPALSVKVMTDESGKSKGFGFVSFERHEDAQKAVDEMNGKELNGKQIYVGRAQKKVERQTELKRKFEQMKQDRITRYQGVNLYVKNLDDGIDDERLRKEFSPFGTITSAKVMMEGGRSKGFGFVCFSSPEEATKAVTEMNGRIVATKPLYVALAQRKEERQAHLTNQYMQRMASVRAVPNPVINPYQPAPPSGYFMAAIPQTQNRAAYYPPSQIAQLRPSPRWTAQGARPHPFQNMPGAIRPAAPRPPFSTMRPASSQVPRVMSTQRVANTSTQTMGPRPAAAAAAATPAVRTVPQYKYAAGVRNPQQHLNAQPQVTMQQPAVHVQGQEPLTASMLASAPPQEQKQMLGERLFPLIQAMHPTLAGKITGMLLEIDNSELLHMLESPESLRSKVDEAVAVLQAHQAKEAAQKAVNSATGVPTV

[5] = Counterscreen for AddAB inhibitors: absorbance-based bacterial cell-based high throughput dose response assay for inhibitors of bacterial viability. [Related pubchem assays (depositor defined):AID435030, AID449728, AID449731, AID488942, AID488955, AID488956]; assay type: functional
[6] = target: Dual specificity tyrosine-phosphorylation-regulated kinase 1A (Rattus norvegicus, UniProt Q63470); assay type: biochemical, Homo sapiens
[7] = target: T3, Polyadenylate-binding protein 1; assay: PABP1 MLLE–PAM2 binding inhibitor potency, dose response, biochemical, fluorescence polarization, FITC-PAM2 peptide (AID 602259); assay type: functional; details: read-out: IC50_Mean
[8] = NIH-3T3 fibroblast cytotoxicity, dose response, cytotoxicity control, cell-based, fluorescence, Alamar Blue, secondary assay (AID 2327); assay type: functional;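 also: NIH-3T3 mouse fibroblasts cultured with fluconazole at 8 µg/mL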

CN1CCc2cc3c(c4c2[C@H]1[C@H](O)c1ccccc1-4)OCO3
EC50 [1]: 2.74 µM (active) | EC50 [2]: 8.45 µM (inconclusive) | EC50 [3]: 11.9 µM (active) | IC50 [4]: > 66 µM (inactive) | IC50 [5]: > 119 µM (inactive) | AC50 [6]: 0.877 µM (active) | IC50 [7]: 25.8 µM (inactive) | EC50 [8]: 75.6 µM (active)
